Experimental data: patent USRE49517E1, “Pyrazoles” (Janssen Pharmaceuticals, Inc., priority 2014, dated 2023)

Biological target: human ERG receptor (Homo sapiens (Human), UniProt Q12809)
Test: HERGBD: inhibition of specific [3H]-Dofetilide binding to the hERG receptor
Details: HEK cell membranes
Procedure: Inhibition of Specific Binding to the hERG—Receptor (HERGBD)
A HEK cell line with stable transfected human ERG receptor was used for the assay. The cells were grown adherently and maintained in DULBECCOS' MEM medium with 10% FBS, 1% non-essential amino acids, 1% Penicillin/Streptomycin and 400 μg/ml G418 (Calbiochem).
For binding assays and membrane preparations the cell culture medium was removed, cells were washed with PBS. Crude membranes for radioligand binding experiments were prepared by scraping the cells off the dishes in ice cold 20 mM HEPES/0.1 mM KCl/pH 7.2. […]
Binding was terminated by filtration of the incubated membrane preparations using Filtermat B (Pharmacia, Uppsala Sweden) and a Micro Cell Harvester (Skatron, Lier, Norway). The Filtermat B had been presoaked with 1% polyethylen imine and carefully washed with 0.05 M Tris/HCl-buffer pH=7.7 after the filtration to separate free and bound radioactivity. The filters were counted in a scintillation counter (Betaplate 1205, Berthold, Wildbad, Germany) in order to determine the specific binding of [^3H]-Dofetilide.
The optimal amount of membrane preparation in the assay was determined and optimized for each membrane preparation separately in front of using the membranes in compound testing. […]

human ERG receptor, sequence (Q12809 whole entry): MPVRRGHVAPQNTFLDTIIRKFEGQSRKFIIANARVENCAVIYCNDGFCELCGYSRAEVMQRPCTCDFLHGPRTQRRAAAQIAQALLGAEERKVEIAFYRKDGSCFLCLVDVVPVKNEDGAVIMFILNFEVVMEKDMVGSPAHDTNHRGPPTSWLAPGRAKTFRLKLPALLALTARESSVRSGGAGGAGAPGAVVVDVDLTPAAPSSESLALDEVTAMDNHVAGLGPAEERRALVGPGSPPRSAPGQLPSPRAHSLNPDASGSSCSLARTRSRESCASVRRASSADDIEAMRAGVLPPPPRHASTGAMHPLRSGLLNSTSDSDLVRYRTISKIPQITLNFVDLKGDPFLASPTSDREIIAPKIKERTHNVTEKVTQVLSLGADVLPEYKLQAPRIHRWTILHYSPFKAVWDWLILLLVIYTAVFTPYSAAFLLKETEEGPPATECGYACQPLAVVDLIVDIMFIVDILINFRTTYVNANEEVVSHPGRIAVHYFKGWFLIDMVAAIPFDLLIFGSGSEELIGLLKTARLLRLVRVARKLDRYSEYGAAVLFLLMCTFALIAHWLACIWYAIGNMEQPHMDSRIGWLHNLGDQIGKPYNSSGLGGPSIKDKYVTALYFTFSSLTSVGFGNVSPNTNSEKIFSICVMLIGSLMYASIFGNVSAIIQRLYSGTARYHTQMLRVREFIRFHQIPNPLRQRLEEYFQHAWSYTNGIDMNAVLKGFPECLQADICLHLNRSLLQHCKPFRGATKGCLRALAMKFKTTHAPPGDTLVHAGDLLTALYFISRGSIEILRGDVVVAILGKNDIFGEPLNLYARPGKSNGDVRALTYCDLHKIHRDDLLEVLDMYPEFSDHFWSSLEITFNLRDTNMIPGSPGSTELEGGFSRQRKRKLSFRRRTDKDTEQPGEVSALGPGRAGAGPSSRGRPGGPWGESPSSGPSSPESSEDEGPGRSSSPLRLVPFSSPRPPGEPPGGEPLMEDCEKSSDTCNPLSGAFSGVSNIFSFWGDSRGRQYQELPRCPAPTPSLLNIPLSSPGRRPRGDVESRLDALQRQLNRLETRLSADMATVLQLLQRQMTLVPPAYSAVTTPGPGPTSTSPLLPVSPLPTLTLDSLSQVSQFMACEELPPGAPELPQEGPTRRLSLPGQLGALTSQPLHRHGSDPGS

## Cc1cc(Cn2cc(-c3ccc(C(F)(F)F)cc3)cn2)n(C)n1 [Example 51, 1,3-Dimethyl-5-[[4-[4-(trifluoromethyl)phenyl]pyrazol-1-yl]methyl]-Pyrazole]
  IC50: 137 µM

## Cn1ccc(Cn2cc(-c3cccc(C(F)(F)F)c3)cn2)n1 [Example 49, 1-methyl-3-[[4-[3-(trifluoromethyl)phenyl]pyrazol-1-yl]methyl]pyrazole]
  IC50: 19 µM
